In ChEMBL document CHEMBL5214886, “An appraisal of anti-mycobacterial activity with structure-activity relationship of piperazine and its analogues: A review” (Eur J Med Chem, 2021):
pIC50: −log10 of the molar value. ≈ marks a conversion by molar mass, not a printed value. Where “and” joins values, the source holds several entries; their conditions need not be identical. Equal values may be shown once.

Columns and labels:
[1] = tested on: Mycobacterium tuberculosis; assay: Antimycobacterial activity against Mycobacterium tuberculosis H37Rv assessed as reduction in bacterial growth by REMA analysis; assay type: functional
[2] = tested on: Mycobacterium tuberculosis; assay: Antimycobacterial activity against Mycobacterium tuberculosis H37Rv assessed as reduction in bacterial growth incubated for 6 days by resazurin reduction microplate assay; assay type: functional; conditions: 144 h, time 6 day
[3] = tested on: Mycobacterium tuberculosis; assay: Antimycobacterial activity against Mycobacterium tuberculosis H37Rv assessed as reduction in bacterial growth by BACTEC MGIT method; assay type: functional
[4] = tested on: Mycobacterium tuberculosis; assay: Antimycobacterial activity against Mycobacterium tuberculosis H37Rv assessed as reduction in bacterial growth by agar dilution method; assay type: functional
[5] = tested on: Mycobacterium tuberculosis; assay: Antimycobacterial activity against Mycobacterium tuberculosis H37Rv assessed as reduction in bacterial growth incubated for 21 days by broth dilution assay; assay type: functional; conditions: 504 h, time 21 day
[6] = tested on: Mycobacterium tuberculosis; assay: Antimycobacterial activity against Mycobacterium tuberculosis H37Rv ATCC 27294 assessed as reduction in bacterial growth and measured after 21 days by radiometric BACTEC method; assay type: functional; conditions: H37Rv ATCC 27294, 504 h, time 21 day
[7] = tested on: Mycobacterium tuberculosis; assay: Antimycobacterial activity against Mycobacterium tuberculosis H37Rv ATCC 27294 assessed as reduction in bacterial growth incubated for 7 days by MABA analysis; assay type: functional; conditions: H37Rv ATCC 27294, 168 h, time 7 day
[8] = tested on: Mycobacterium tuberculosis; assay: Antimycobacterial activity against Mycobacterium tuberculosis H37Rv ATCC 27294 assessed as reduction in bacterial growth incubated for 72 hrs by two-fold dilution method; assay type: functional
[9] = tested on: Mycobacterium tuberculosis; assay: Antimycobacterial activity against Mycobacterium tuberculosis H37Rv assessed as reduction in bacterial growth by MABA analysis; assay type: functional
[10] = tested on: Mycobacterium tuberculosis; assay: Antimycobacterial activity against Mycobacterium tuberculosis kurono assessed as reduction in bacterial colonies incubated for 14 days by colony counting method; assay type: functional; conditions: 336 h, time 14 day
[11] = Aqueous solubility of the compound incubated for 3 days by shake flask method; assay type: physicochemical; conditions: water; time 3 day
[12] = tested on: Mycobacterium tuberculosis; assay: Antimycobacterial activity against Mycobacterium tuberculosis H37Rv assessed as reduction in bacterial growth incubated for 15 days by turbidometric method; assay type: functional; conditions: 360 h, time 15 day
[13] = tested on: Mycobacterium tuberculosis; assay: Antimycobacterial activity against Mycobacterium tuberculosis H37Rv assessed as reduction in bacterial growth and measured after 7 days by resazurin assay; assay type: functional, organism-based; conditions: 168 h
[14] = tested on: Mycobacterium tuberculosis; assay: Antimycobacterial activity against Mycobacterium tuberculosis H37Rv assessed as reduction in bacterial growth; assay type: functional
[15] = tested on: Mycobacterium tuberculosis; assay: Antimycobacterial activity against Mycobacterium tuberculosis H37Rv assessed as reduction in bacterial growth by MABA assay; assay type: functional
[16] = tested on: Mycobacterium tuberculosis; assay: Antimycobacterial activity against Mycobacterium tuberculosis My 331/88 (H37Rv) assessed as reduction in bacterial growth incubated for 14 days by microdilution method; assay type: functional; conditions: 336 h, time 14 day
[17] = tested on: Mycobacterium tuberculosis; assay: Antimycobacterial activity against Mycobacterium tuberculosis H37Ra assessed as reduction in bacterial growth; assay type: functional
[18] = tested on: Mycobacterium tuberculosis; assay: Antimycobacterial activity against Mycobacterium tuberculosis H37Rv ATCC 27294 assessed as reduction in bacterial growth by fluorescence based MABA method; assay type: functional
[19] = tested on: Mycobacterium tuberculosis; assay: Antimycobacterial activity against Mycobacterium tuberculosis H37Rv assessed as reduction in bacterial colonies by colony counting method; assay type: functional
[20] = tested on: Mycobacterium tuberculosis; assay: Antimycobacterial activity against Mycobacterium tuberculosis H37Rv ATCC 27294 assessed as reduction in bacterial growth; assay type: functional
[21] = target: T1, Enoyl-[acyl-carrier-protein] reductase [NADH] (Mycobacterium tuberculosis, UniProt P9WGR1); assay: Inhibition of Mycobacterium tuberculosis InhA using octenoyl-CoA as substrate in presence of NADH and measured for 10 mins by colorimetric assay
T1 sequence (P9WGR1 whole entry): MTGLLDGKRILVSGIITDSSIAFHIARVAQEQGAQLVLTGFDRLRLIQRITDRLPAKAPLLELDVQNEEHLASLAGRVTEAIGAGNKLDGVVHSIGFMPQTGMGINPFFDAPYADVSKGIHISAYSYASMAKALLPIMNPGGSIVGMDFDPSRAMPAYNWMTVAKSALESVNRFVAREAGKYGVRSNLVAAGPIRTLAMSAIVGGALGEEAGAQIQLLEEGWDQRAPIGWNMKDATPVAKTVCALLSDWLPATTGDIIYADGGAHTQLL

[22] = tested on: Mycobacterium tuberculosis; assay: Antimycobacterial activity against Mycobacterium tuberculosis H37Rv ATCC 27294 assessed as reduction in bacterial growth by MABA analysis; assay type: functional

`O=c1nc(N2CCN(CC3CCCCC3)CC2)sc2c([N+](=O)[O-])cc(C(F)(F)F)cc12` [MACOZINONE] gave an MIC [1] of less than 0.42 µM and an MIC [2] of 0.0004 µM (≈ 0.000183 µg/mL).

`N#Cc1ccc(Nc2nc(Oc3ncnc4ccccc34)nc(N3CCN(c4cccc(Cl)c4Cl)CC3)n2)cc1C(F)(F)F` gave an MIC [3] greater than 9.79 µM and an MIC [4] of 9.79 µM (≈ 6.25 µg/mL).

`O=C(CSc1nnc(N2CCN(c3cc4c(cc3F)c(=O)c(C(=O)O)cn4C3CC3)CC2)s1)c1ccc([N+](=O)[O-])cc1` showed an MIC [5] of 0.82 µM (≈ 0.501 µg/mL).

Work on `CCOC(=O)N1CCN(CC(=O)C2C(c3ccccc3)CC(=O)C(CC)C2c2ccccc2)CC1` (stereo not drawn) yielded an MIC [6] of 33.6 µM (≈ 16 µg/mL).

With `O=C(CCCc1cc2ccccc2[nH]1)N1CCN(c2nc3ccccc3c3ccccc23)CC1` the MIC [7] was 3.48 µM (≈ 1.56 µg/mL).

With `Cc1cn2c(C(=O)NCc3ccc(N4CCN(c5ccc(C(F)(F)F)cn5)CC4)c(F)c3)cnc2s1` the MIC [7] was 0.004 µM (≈ 0.00207 µg/mL).

For `COc1c(N2CCNC(C)C2)c(F)cc2c(=O)c(C(=O)O)cn(C3CC3)c12` (stereo not drawn) [GATIFLOXACIN], the MIC [8] was 0.66 µM (≈ 0.248 µg/mL).

Work on `CON=C1CCC(CN2CCN(c3nc(=O)c4cc(C(F)(F)F)cc([N+](=O)[O-])c4s3)CC2)CC1` (stereo not drawn) yielded an MIC [9] of less than 0.03 µM.

In the case of `CC(C)(c1ccc(OCc2ccc(C(F)(F)F)cc2)cc1)N1CCN(c2ccc(OC[C@H]3CCn4cc([N+](=O)[O-])nc4O3)cc2)CC1`, the MIC [10] was 0.001 µM (≈ 0.000652 µg/mL).

For `CCON=C1CCC(CN2CCN(c3nc(=O)c4cc(C(F)(F)F)cc([N+](=O)[O-])c4s3)CC2)CC1` (stereo not drawn), the MIC [9] was less than 0.03 µM.

`NNC(=O)c1ccncc1` [ISONIAZID] showed an MIC [9] of 0.06 µM (≈ 0.00823 µg/mL) and an MIC [5] of 10.9 µM (≈ 1.5 µg/mL).

In the case of `O=c1nc(N2CCN(S(=O)(=O)C3CC3)CC2)sc2c([N+](=O)[O-])cc(C(F)(F)F)cc12`, the MIC [2] was 0.0064 µM (≈ 0.00297 µg/mL) and the solubility thermodynamic at 72 h [11] was 15.9 µM (≈ 7.39 µg/mL).

`Cc1cccc(-c2nc(CN3CCN(c4ccnc5cc(-c6cccnc6)ccc45)CC3)no2)c1C` showed an MIC [12] of 0.52 µM (≈ 0.248 µg/mL).

With `Cc1ccc2nc(-c3ccccc3)c(C(c3ccccc3)N(CC(=O)N3CCN(c4ccccn4)CC3)Cc3ccccc3)cc2c1` (stereo not drawn) the pIC50 [13] was 5.40.

`CCOC(=O)N1CCN(CC(=O)C2C(c3ccc(OC)cc3)C(C)C(=O)C(C)C2c2ccc(OC)cc2)CC1` (stereo not drawn) gave an MIC [6] of 29.8 µM (≈ 16 µg/mL).

In the case of `COC(=O)COc1ccc2ccccc2c1CN1CCN(C/C=C/c2ccccc2)CC1`, the MIC [14] was 9.3 µM (≈ 4 µg/mL).

Work on `CCOC(=O)c1ccc(N2CCN(c3nccc(N4CCOc5nc([N+](=O)[O-])cn5C4)n3)CC2)cc1` yielded an MIC [15] greater than 100 µM.

`O=C(c1ccncc1)N1CCN(c2nc3ccccc3c3ccccc23)CC1` showed an MIC [7] of 4.23 µM (≈ 1.56 µg/mL).

With `COc1ccc2cc(C(=O)CN3CCN(c4c(F)cc5c(=O)c(C(=O)O)cn(C6CC6)c5c4OC)CC3)c(=O)oc2c1` the MIC [8] was 0.43 µM (≈ 0.248 µg/mL).

In the case of `CC[C@@H](CO)NCCN[C@@H](CC)CO` [ETHAMBUTOL], the MIC [16] was 1.1 µM (≈ 0.225 µg/mL).

With `CC1COc2c(N3CCN(C)CC3)c(F)cc3c(=O)c(C(=O)O)cn1c23` (stereo not drawn) [OFLOXACIN] the MIC [16] was 1 µM (≈ 0.361 µg/mL).

Work on `O=C(NCc1ccc(N2CCN(Cc3ccccc3)CC2)cc1)c1ccc([N+](=O)[O-])o1` yielded an MIC [14] of 0.014 µM (≈ 0.00589 µg/mL) and an MIC [17] of 0.014 µM (≈ 0.00589 µg/mL).

Compound `O=C(CSc1nnc(N2CCN(c3cc4c(cc3F)c(=O)c(C(=O)O)cn4C3CC3)CC2)s1)c1ccc(Cl)cc1` has an MIC [5] of 1.67 µM (≈ 1 µg/mL).

Work on `O=C(NCc1ccc(N2CCN(c3ccc(F)cc3)CC2)cc1)c1ccc([N+](=O)[O-])o1` yielded an MIC [9] of less than 0.04 µM.

For `CC1COc2c(N3CCNCC3)c(F)cc3c(=O)c(C(=O)O)cn1c23` (stereo not drawn) [DESMETHYL-OFLOXACIN], the MIC [18] was 11.7 µM and 4.55 µM.

`CCCCOC(=O)Nc1ccc(C(O)CN2CCN(c3ccccc3F)CC2)cc1` (stereo not drawn) showed an MIC [16] of 8 µM (≈ 3.32 µg/mL).

`CCOC(=O)N1CCN(CC(=O)C2C(c3cccc(F)c3)C(C)C(=O)C(C)C2c2cccc(F)c2)CC1` (stereo not drawn) gave an MIC [6] of 31.2 µM (≈ 16 µg/mL).

In the case of `CCCCCCCCCN1CCN(c2c(F)cc3c(c2OC)C(C2CC2)=CC(C(=O)O)C3=O)CC1` (stereo not drawn), the MIC [19] was 0.25 µM (≈ 0.122 µg/mL).

For `CCOC(=O)N1CCN(CC(=O)C2C(c3ccc(Cl)cc3)C(C)C(=O)C(C)C2c2ccc(Cl)cc2)CC1` (stereo not drawn), the MIC [6] was 29.3 µM (≈ 16 µg/mL).

With `CCn1cc(C(=O)O)c(=O)c2cc(F)c(N3CCN(c4nnc(SCC(=O)c5ccc([N+](=O)[O-])cc5)s4)CC3)cc21` the MIC [5] was 1.68 µM (≈ 1.01 µg/mL).

For `O=C(NCc1ccc(N2CCN(c3ccc(F)cc3F)CC2)cc1)c1ccc([N+](=O)[O-])o1`, the MIC [9] was less than 0.04 µM.

Compound `CCOC(=O)C1=NOC(c2ccc(N3CCN(Cc4ccccc4)CC3)cc2)C1` (stereo not drawn) has an MIC90 [5] of 3.96 µM (≈ 1.56 µg/mL).

Work on `CC(C)(C)c1ccc(S(=O)(=O)N2CCN(c3nc4ccccc4c4ccccc34)CC2)cc1` yielded an MIC [7] of 3.39 µM (≈ 1.56 µg/mL).

`NC(=O)c1cnccn1` [PYRAZINAMIDE] gave an MIC [3] of 50.8 µM (≈ 6.25 µg/mL) and an MIC [4] of 50.8 µM (≈ 6.25 µg/mL).

`CC(=O)NC[C@H]1CN(c2ccc(N3CCN(c4ccc5nccn5n4)CC3)c(F)c2)C(=O)O1` showed an MIC [20] of 1.1 µM (≈ 0.499 µg/mL).

`CCOC(=O)N1CCN(CC(=O)C2C(c3ccccc3)C(C)C(=O)C(C)C2c2ccccc2)CC1` (stereo not drawn) gave an MIC [6] of 33.6 µM (≈ 16 µg/mL).

With `CO[C@H]1/C=C/O[C@@]2(C)Oc3c(C)c(O)c4c(O)c(c(/C=N/N5CCN(C)CC5)c(O)c4c3C2=O)NC(=O)/C(C)=C\C=C\[C@H](C)[C@H](O)[C@@H](C)[C@@H](O)[C@@H](C)[C@H](OC(C)=O)[C@@H]1C` [RIFAMPIN] the MIC [9] was greater than 48.6 µM.

`COc1cc(N2CCN(c3ccc(N4C[C@H](CNC(C)=O)OC4=O)cc3F)CC2)nc2nccn12` showed an MIC [20] of 1.03 µM (≈ 0.498 µg/mL).

`O=C(c1ccc2[nH]ccc2c1)N1CCN(C2c3ccccc3-c3ccc([N+](=O)[O-])cc32)CC1` (stereo not drawn) showed a pIC50 [21] of 6.57.

For `CCn1cc(C(=O)O)c(=O)c2cc(F)c(N3CCN(CN4C(=O)/C(=N\c5ncc(Cc6cc(OC)c(OC)c(OC)c6)c(N)n5)c5cc(Cl)ccc54)C(C)C3)c(F)c21` (stereo not drawn), the MIC [15] was 1.91 µM (≈ 1.56 µg/mL) and the MIC [22] was 1.91 µM (≈ 1.56 µg/mL).

Compound `COc1ccc(N2CCN(c3ccc(CNC(=O)c4ccc([N+](=O)[O-])o4)cc3)CC2)cc1` has an MIC [9] of less than 0.04 µM.
